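The concentration for 50% growth inhibition is given as GI50. TGI: total growth inhibition.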
Assays:
Assay in all cases: NCI-60 cell line screen, 384-well format
[1] = test system: MOLT-4 leukemia
[2] = test system: KM12 colon
[3] = test system: LOX IMVI melanoma
[4] = test system: HOP-92 NSCLC
[5] = test system: U251 glioblastoma
[6] = test system: HS 578T breast
[7] = test system: MCF7 breast
[8] = test system: BT-549 breast
[9] = test system: 786-0 renal
[10] = test system: UACC-62 melanoma
[11] = test system: SK-MEL-5 melanoma
[12] = test system: ACHN renal
[13] = test system: HOP-62 NSCLC
[14] = test system: SF-539 CNS
[15] = test system: CCRF-CEM leukemia
[16] = test system: HL-60(TB) leukemia
[17] = test system: TK-10 renal
[18] = test system: MALME-3M melanoma
[19] = test system: HT29 colon
[20] = test system: SW-620 colon
[21] = test system: CAKI-1 renal
[22] = test system: NCI-H460 NSCLC
[23] = test system: A498 renal
[24] = test system: NCI-H23 lung
[25] = test system: EKVX NSCLC
[26] = test system: RXF 393 renal
[27] = test system: NCI/ADR-RES ovarian
[28] = test system: SK-OV-3 ovarian
[29] = test system: T-47D breast
[30] = test system: OVCAR-8 ovarian
[31] = test system: SK-MEL-2 melanoma
[32] = test system: NCI-H522 lung
[33] = test system: UACC-257 melanoma
[34] = test system: SNB-19 CNS
[35] = test system: SR leukemia
[36] = test system: SN12C renal
[37] = test system: DU-145 prostate
[38] = test system: COLO 205 colon
[39] = test system: SK-MEL-28 melanoma
[40] = test system: SNB-75 CNS
[41] = test system: K-562 leukemia
[42] = test system: HCC-2998 colon
[43] = test system: NCI-H226 lung
[44] = test system: UO-31 renal
[45] = test system: MDA-MB-468 breast
[46] = test system: MDA-MB-435 melanoma
[47] = test system: IGROV1 ovarian

Cc1cc(C)c(CNC(=O)c2cc(-c3ccc(CN4CCOCC4)cc3)cc3c2cnn3C2CCCC2)c(=O)[nH]1
GI50 [1]: 3.02 µM
TGI [1]: 7.94 µM
GI50 [2]: 8.88 µM
TGI [2]: 21.7 µM
GI50 [3]: 7.45 µM
TGI [3]: 20.7 µM
GI50 [4]: 6.29 µM
TGI [4]: 17.1 µM
GI50 [5]: 7.69 µM
TGI [5]: 20.2 µM
GI50 [6]: 2.92 µM
TGI [6]: 7.44 µM
GI50 [7]: 6.19 µM
TGI [7]: 17.8 µM
GI50 [8]: 8.98 µM
TGI [8]: 22.1 µM
GI50 [9]: 5.82 µM
TGI [9]: 16.9 µM
GI50 [10]: 12.3 µM
TGI [10]: 24.9 µM
GI50 [11]: 5.47 µM
TGI [11]: 13.9 µM
GI50 [12]: 10.3 µM
TGI [12]: 23.9 µM
GI50 [13]: 6.39 µM
TGI [13]: 17.4 µM
GI50 [14]: 6.86 µM
TGI [14]: 19.8 µM
GI50 [15]: 3.42 µM
TGI [15]: 8.99 µM
GI50 [16]: 4.13 µM
TGI [16]: 12.6 µM
GI50 [17]: 0.968 µM
TGI [17]: 21.9 µM
GI50 [18]: 5.49 µM
TGI [18]: 15.9 µM
GI50 [19]: 2.3 µM
TGI [19]: 5.14 µM
GI50 [20]: 13.2 µM
TGI [20]: 26.3 µM
GI50 [21]: 9.04 µM
TGI [21]: 22.2 µM
GI50 [22]: 7.72 µM
TGI [22]: 20.5 µM
GI50 [23]: 3.92 µM
TGI [23]: 15.4 µM
GI50 [24]: 14.3 µM
TGI [24]: 27.5 µM
GI50 [25]: 3.41 µM
TGI [25]: 21.6 µM
GI50 [26]: 5.49 µM
TGI [26]: 15.8 µM
GI50 [27]: 11.6 µM
TGI [27]: 24 µM
GI50 [28]: 13.4 µM
TGI [28]: 26.4 µM
GI50 [29]: 0.986 µM
TGI [29]: 10.6 µM
GI50 [30]: 11 µM
TGI [30]: 23.3 µM
GI50 [31]: 13 µM
TGI [31]: 25.7 µM
GI50 [32]: 15.3 µM
TGI [32]: 28.7 µM
GI50 [33]: 2.23 µM
TGI [33]: 4.96 µM
GI50 [34]: 9.84 µM
TGI [34]: 23.4 µM
GI50 [35]: 2.41 µM
TGI [35]: 5.85 µM
GI50 [36]: 12.3 µM
TGI [36]: 24.9 µM
GI50 [37]: 13.5 µM
TGI [37]: 27.6 µM
GI50 [38]: 8.25 µM
TGI [38]: 20.5 µM
GI50 [39]: 9.62 µM
TGI [39]: 21.9 µM
GI50 [40]: 7.97 µM
TGI [40]: 21.2 µM
GI50 [41]: 4.84 µM
TGI [41]: 16.5 µM
GI50 [42]: 6.61 µM
TGI [42]: 17.7 µM
GI50 [43]: 12.9 µM
TGI [43]: 25.9 µM
GI50 [44]: 5.87 µM
TGI [44]: 20.6 µM
GI50 [45]: 0.0189 µM
TGI [45]: 0.0459 µM
GI50 [46]: 12 µM
TGI [46]: 25.3 µM
GI50 [47]: 1.02 µM
TGI [47]: 25 µM

Source: PubChem BioAssay (NCI)
